Values after ≈ are worked out from the molar mass of the structure shown.
What was measured:
P388 leukemia = test: Antitumor activity against intraperitoneally transplanted P388 leukemia in mice; type: in vivo; conditions: given 1 day and 5 days after transplantation of P388 leukemia 1 x 10^6 cells/mouse i.p., survival days of saline control group = 100
Procedure: For example, into CDF, mice were intraperitoneally transplanted P388 leukemia 1 x 10^6 cells/mouse as a suspension, and 2-bromo-6,7-dichloro-1-tetralone which is typical of the compounds of the present invention was administered to the mice 1 day and 5 days respectively after the transplantation. The effect of the test compound was evaluated in terms of the increase of life span (%) as calculated by determining the survival days of the control group consisting of mice administered with physiological saline solution as 100.

Candida albicans = test: Minimum inhibitory concentration on Sabouraud's agar medium (Yamano et al. method); type: cell-based; conditions: 168 h, agar plate, 27°C for 7 days
Procedure: (§1) Sabouraud's agar medium was used as a culture medium. (A liquid culture medium was prepared from the same ingredients except for agar).
(§2) This culture medium was prepared by dissolving the above ingredients under heat, and the medium thus prepared was sterilized under the conditions of 1.05 bar (15 Ibs.lin^2) for 15 minutes.
(§3) The microorganisms to be tested were fungi of the species Trichophyton mentagrophytes (A), Trichophyton asteroides (B) and Candida a/bicans (C). Each of these microorganisms was cultivated on the corresponding slant medium at 27°C for 7 days. A loopful of each of the microorganisms (A), (B) and (C) was triturated in a mortar, charged into a test tube containing 10 ml of physiological saline solution, and suspended therein with a thermomixer. Each of the suspensions thus prepared was used in the test.
(§4) 9 ml of the culture medium and 1 ml of a dilute sample were thoroughly admixed with each other in a Petri dish to prepare an agar plate, which was then streaked with the suspension containing each of the microorganisms to be tested by using a sterile platinum wire loop. The microorganisms (A), (B) and (C) thus inoculated on the agar plates were cultivated at 27°C for 7 days, and thereafter the MIC thereof was determined.

Trichophyton asteroides = test: as above; type: cell-based; conditions: 168 h, agar plate, 27°C for 7 days
Procedure: as §1, §2, §3, §4

[1] = test system: Trichophyton mentagrophytes; test: as above; type: cell-based; conditions: 168 h, agar plate, 27°C for 7 days
Procedure: as §1, §2, §3, §4

Toxicity (LD50) to mice = conditions: mouse, in vivo

| MIC (Candida albicans) | MIC (Trichophyton asteroides) | MIC [1] | Structure (SMILES) | Survival time relative to saline control (T/C, control = 100) (P388 leukemia; Dose 10.0 mg/kg/day) | Survival time relative to saline control (T/C, control = 100) (P388 leukemia; Dose 50.0 mg/kg/day) | LD50 (Toxicity (LD50) to mice; Oral) | LD50 (Toxicity (LD50) to mice; ip, Intraperitoneal) | LD50 (Toxicity (LD50) to mice; sc, Subcutaneous) |
| --- | --- | --- | --- | --- | --- | --- | --- | --- |
| > 200 µg/mL | 6.25 µg/mL (≈ 17.7 µM) | 6.25 µg/mL (≈ 17.7 µM) | COC1=CC(=O)C[C@@H](C)[C@]12Oc1c(Cl)c(OC)cc(OC)c1C2=O [griseofulvin, reference compound] |  |  |  |  |  |
| 6.25 µg/mL (≈ 25.7 µM) | 3.13 µg/mL (≈ 12.9 µM) | 3.13 µg/mL (≈ 12.9 µM) | O=C1c2cc(F)ccc2CCC1Br (centres unmarked) [2-bromo-7-fluoro-1-tetralone] |  |  |  |  |  |
| 1.56 µg/mL (≈ 5.31 µM) | 1.56 µg/mL (≈ 5.31 µM) | 1.56 µg/mL (≈ 5.31 µM) | O=C1c2cc(Cl)cc(Cl)c2CCC1Br (centres unmarked) [2-bromo-5,7-dichloro-1-tetralone] |  |  |  |  |  |

| Structure (SMILES) | MIC (Candida albicans) | MIC (Trichophyton asteroides) | MIC [1] | Survival time relative to saline control (T/C, control = 100) (P388 leukemia; Dose 10.0 mg/kg/day) | Survival time relative to saline control (T/C, control = 100) (P388 leukemia; Dose 50.0 mg/kg/day) | LD50 (Toxicity (LD50) to mice; Oral) | LD50 (Toxicity (LD50) to mice; ip, Intraperitoneal) | LD50 (Toxicity (LD50) to mice; sc, Subcutaneous) |
| --- | --- | --- | --- | --- | --- | --- | --- | --- |
| O=C1c2cc(Cl)c(Cl)cc2CCC1Br (centres unmarked) [2-bromo-6,7-dichloro-1-tetralone] | 1.56 µg/mL (≈ 5.31 µM) | 0.78 to 1.56 µg/mL (≈ 2.65 to 5.31 µM) | 0.78 µg/mL (≈ 2.65 µM) | 129% | 140% | > 1500 mg/kg | 820 mg/kg | > 1500 mg/kg |

— EP0125695B1, “2-Bromo-1-tetralone derivatives” (KIRIN BEER KABUSHIKI KAISHA, priority 1983, dated 1984)
